Test results published in PubChem BioAssay AID192 (DTP/NCI, 2004).
Where “and” joins values, the source holds several entries; their conditions need not be identical. Equal values may be shown once. Toxic doses and inconclusive results are not listed. The calls were made as follows: active = survival T/C of 150% or more; inactive = T/C below 125% in these data.

Test system: BDF1 mice, B16 melanoma ip, median survival T/C
Test: NCI In Vivo Anticancer Drug Screen. Data for tumor model B16 Melanoma (intraperitoneal) in B6D2F1 (BDF1) mice
Conditions: endpoint: median survival time, higher = longer survival
In short: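 Transplantable tumor model; survival or tumor size measured; reported as T/C, treated over vehicle control.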

[1] = dose: 6.25 mg/kg/injection, schedule: Q01DX009 (ip), vehicle: Klucel (hydroxypropylcellulose) (HPC)
[2] = dose: 12.5 mg/kg/injection, schedule: Q01DX009 (ip), vehicle: saline with Tween-80
[3] = dose: 25.0 mg/kg/injection, schedule: Q01DX009 (ip), vehicle: saline with Tween-80
[4] = dose: 100.0 mg/kg/injection, schedule: Q01DX009 (ip), vehicle: Klucel (hydroxypropylcellulose) (HPC)
[5] = dose: 200.0 mg/kg/injection, schedule: Q01DX009 (ip), vehicle: Klucel (hydroxypropylcellulose) (HPC)
[6] = dose: 50.0 mg/kg/injection, schedule: Q01DX009 (ip), vehicle: saline with Tween-80
[7] = dose: 100.0 mg/kg/injection, schedule: Q01DX009 (ip), vehicle: saline with Tween-80
[8] = dose: 400.0 mg/kg/injection, schedule: Q01DX009 (ip), vehicle: saline with Tween-80
[9] = dose: 400.0 mg/kg/injection, schedule: Q01DX009 (ip), vehicle: Klucel (hydroxypropylcellulose) (HPC)
[10] = dose: 200.0 mg/kg/injection, schedule: Q01DX009 (ip), vehicle: saline with Tween-80
[11] = dose: 3.12 mg/kg/injection, schedule: Q01DX009 (ip), vehicle: Klucel (hydroxypropylcellulose) (HPC)
[12] = dose: 50.0 mg/kg/injection, schedule: Q01DX009 (ip), vehicle: Klucel (hydroxypropylcellulose) (HPC)

Measured: T/C

CCN(Cc1ccc(Cl)c(Cl)c1)c1ccc2nc(N)nc(N)c2c1C
inactive: dose: 3.12 mg/kg/injection, schedule: Q01DX009 (ip), vehicle: distilled water + Tween-80 110 % of control | dose: 3.13 mg/kg/injection, schedule: Q01DX009 (ip), vehicle: Klucel (hydroxypropylcellulose) (HPC) 89 % of control | [1] 94 % of control | dose: 6.25 mg/kg/injection, schedule: Q01DX009 (ip), vehicle: distilled water + Tween-80 115 % of control | dose: 12.5 mg/kg/injection, schedule: Q01DX009 (ip), vehicle: distilled water + Tween-80 122 % of control

O=NN(CCF)C(=O)NC1CCC(NC(=O)N(CCF)N=O)CC1 (stereo unspecified)
active: [2] 166 % of control | dose: 16.5 mg/kg/injection, schedule: Q01DX009 (ip), vehicle: saline with Tween-80 232 % of control | dose: 16.5 mg/kg/injection, schedule: Q01DX009 (ip), vehicle: saline 181 % of control | [3] 214 % of control and 276 % of control | dose: 37.5 mg/kg/injection, schedule: Q01DX009 (ip), vehicle: saline with Tween-80 212 % of control
inactive: dose: 25.0 mg/kg/injection, schedule: Q01DX009 (ip), vehicle: saline 120 % of control

Cc1ccc(NC(=O)Nc2ccc(C)c(NC(=O)Nc3ccc(C)cc3C)c2)c(C)c1
inactive: [4] 91 % of control | [5] 96 % of control

CC(C)CC(Br)C(=O)NC(CC(C)C)C(=O)O (stereo unspecified)
inactive: [3] 95 % of control | [6] 100 % of control | [7] 95 % of control and 100 % of control | [8] 108 % of control

c1cn[nH]c1
inactive: [3] 97 % of control | [6] 96 % of control | [7] 91 % of control

CCc1nc(N)nc(N)c1-c1ccc(Cl)c(Cl)c1.[Cl][Pd][Cl]
inactive: dose: 6.25 mg/kg/injection, schedule: Q01DX009 (ip), vehicle: saline 97 % of control

COc1ccc2c(c1)CCC1=C2CCC2(C)C(=O)OC(=O)C12 (stereo unspecified)
inactive: [4] 103 % of control | [5] 96 % of control | [9] 100 % of control

OC(COc1ccccc1)CN1CCCCC1 (stereo unspecified)
inactive: [7] 112 % of control | [10] 102 % of control | [8] 114 % of control

CS(=O)(=O)c1nnc(-c2ccccc2)s1
inactive: dose: 100.0 mg/kg/injection, schedule: Q01DX009 (ip), vehicle: carboxymethylcellulose (CMC) 111 % of control | dose: 200.0 mg/kg/injection, schedule: Q01DX009 (ip), vehicle: carboxymethylcellulose (CMC) 102 % of control

CC1=C(C)C(=O)O[C@@H]([C@](C)(O)[C@]2(O)CC[C@@]3(O)[C@@H]4C[C@H]5O[C@]56CC=CC(=O)[C@]6(C)[C@H]4CC[C@]23C)C1
inactive: dose: 0.78 mg/kg/injection, schedule: Q01DX009 (ip), vehicle: saline 102 % of control | dose: 1.56 mg/kg/injection, schedule: Q01DX009 (ip), vehicle: saline 114 % of control

C1CN1P1(N2CC2)=NP(N2CC2)(N2CC2)=NP(N2CC2)(N2CC2)=NP(N2CC2)(N2CC2)=N1
inactive: dose: 1.0 mg/kg/injection, schedule: Q01DX009 (ip), vehicle: saline 105 % of control | dose: 1.0 mg/kg/injection, schedule: Q02DX009 (ip), vehicle: saline 88 % of control | dose: 2.0 mg/kg/injection, schedule: Q01DX009 (ip), vehicle: saline 116 % of control | dose: 2.0 mg/kg/injection, schedule: Q02DX009 (ip), vehicle: saline 95 % of control and 105 % of control | dose: 4.0 mg/kg/injection, schedule: Q01DX009 (ip), vehicle: saline 120 % of control | dose: 4.0 mg/kg/injection, schedule: Q02DX009 (ip), vehicle: saline 87 % of control and 90 % of control | dose: 8.0 mg/kg/injection, schedule: Q01DX009 (ip), vehicle: saline 108 % of control | dose: 8.0 mg/kg/injection, schedule: Q02DX009 (ip), vehicle: saline 100 % of control | dose: 16.0 mg/kg/injection, schedule: Q01DX009 (ip), vehicle: saline 93 % of control | dose: 16.0 mg/kg/injection, schedule: Q02DX009 (ip), vehicle: saline 98 % of control and 100 % of control | dose: 32.0 mg/kg/injection, schedule: Q01DX009 (ip), vehicle: saline 97 % of control | dose: 32.0 mg/kg/injection, schedule: Q02DX009 (ip), vehicle: saline 87 % of control and 100 % of control | dose: 64.0 mg/kg/injection, schedule: Q01DX009 (ip), vehicle: saline 108 % of control | dose: 64.0 mg/kg/injection, schedule: Q02DX009 (ip), vehicle: saline 87 % of control and 94 % of control

O=Cc1c(O)c2ccccc2[nH]c1=O
inactive: [3] 106 % of control and 120 % of control | [6] 102 % of control and 107 % of control | [7] 122 % of control

Cc1cc(N(CC(C)Br)CC(C)Br)ccc1N=Nc1ccccc1C(=O)O (stereo unspecified)
active: [2] 165 % of control and 185 % of control

CCCCC(SC(CC)(C(N)=O)c1ccccc1)C(=O)O (stereo unspecified)
inactive: [6] 100 % of control | [7] 99 % of control | [10] 92 % of control | [8] 90 % of control

ClC1(Cl)C2C=CC=CCC21 (stereo unspecified)
inactive: dose: 50.0 mg/kg/injection, schedule: Q04DX003 (ip), vehicle: other 107 % of control | dose: 100.0 mg/kg/injection, schedule: Q04DX003 (ip), vehicle: other 102 % of control | dose: 200.0 mg/kg/injection, schedule: Q04DX003 (ip), vehicle: other 86 % of control

CC(=O)c1ccccc1OCC(O)CN1CCN(c2cccc(C(F)(F)F)c2)CC1 (stereo unspecified)
inactive: dose: 100.0 mg/kg/injection, schedule: Q04DX003 (ip), vehicle: saline with Tween-80 102 % of control | dose: 200.0 mg/kg/injection, schedule: Q04DX003 (ip), vehicle: saline with Tween-80 93 % of control | dose: 400.0 mg/kg/injection, schedule: Q04DX003 (ip), vehicle: saline with Tween-80 91 % of control

CCC(=O)NC1=C(N2CC2C)C(=O)C(NC(=O)CC)=C(N2CC2C)C1=O (stereo unspecified)
inactive: dose: 0.39 mg/kg/injection, schedule: Q01DX009 (ip), vehicle: Klucel (hydroxypropylcellulose) (HPC) 119 % of control | dose: 0.78 mg/kg/injection, schedule: Q01DX009 (ip), vehicle: Klucel (hydroxypropylcellulose) (HPC) 95 % of control | dose: 1.56 mg/kg/injection, schedule: Q01DX009 (ip), vehicle: Klucel (hydroxypropylcellulose) (HPC) 111 % of control | [11] 102 % of control | [1] 123 % of control

O=C(O)c1ccc2c(c1)C(=O)c1ccccc1S2(=O)=O
inactive: [4] 92 % of control | [5] 93 % of control

Cc1ccccc1N=Cc1ccc2c(c1)OCO2
inactive: [12] 102 % of control | [4] 95 % of control | [5] 100 % of control

CC1(C)N=C(N)N=C(N)N1c1cc(Cl)c(Cl)cc1Cl
inactive: dose: 12.5 mg/kg/injection, schedule: Q01DX009 (ip), vehicle: Klucel (hydroxypropylcellulose) (HPC) 94 % of control | dose: 25.0 mg/kg/injection, schedule: Q01DX009 (ip), vehicle: Klucel (hydroxypropylcellulose) (HPC) 99 % of control

O=NN(CCF)C(=O)NC1CCC(=O)NC1=O (stereo unspecified)
active: dose: 15.0 mg/kg/injection, schedule: Q01DX001 (ip), vehicle: saline 166 % of control | dose: 30.0 mg/kg/injection, schedule: Q01DX001 (ip), vehicle: saline 189 % of control | dose: 60.0 mg/kg/injection, schedule: Q01DX001 (ip), vehicle: saline 209 % of control
inactive: dose: 1.88 mg/kg/injection, schedule: Q01DX001 (ip), vehicle: saline 105 % of control | dose: 7.5 mg/kg/injection, schedule: Q01DX001 (ip), vehicle: saline 120 % of control

Cc1ccc(S(=O)(=O)N2CCn3ncc(C#N)c32)cc1
inactive: [12] 100 % of control | [4] 103 % of control | [5] 103 % of control | [9] 96 % of control

NCC(=O)NCC(=O)NC(Cc1ccc(O)cc1)C(=O)O (stereo unspecified)
inactive: [6] 104 % of control | [7] 94 % of control | [10] 102 % of control | [8] 95 % of control

CC[CH2][Pb]([CH2]CC)([CH2]CC)[N]1C(=O)c2ccccc2C1=O
inactive: [11] 109 % of control | [1] 101 % of control

Cc1ccc([N+](=O)[O-])cc1NC(=O)Oc1ccc(Cl)cc1Cl
inactive: [3] 93 % of control | [6] 90 % of control

CN=S(=O)(OCCCCCOS(=O)(=NC)c1ccc(C)cc1)c1ccc(C)cc1 (stereo unspecified)
inactive: dose: 6.25 mg/kg/injection, schedule: Q01DX009 (ip), vehicle: saline with Tween-80 101 % of control | [2] 103 % of control | [3] 99 % of control | [6] 102 % of control | [7] 101 % of control | [10] 106 % of control

Cc1ccc([N+](=O)[O-])c2ccccc12
inactive: [7] 97 % of control | [10] 88 % of control
